Data set [1] can be described thus: Inhibition of cell division of sea urchin fertilized eggs at 25 uM. Format: functional. The note with it: Strongylocentrotus intermedius, Egg.
The nature of data set [2]: Toxicity in mouse erythrocytes assessed as hemolysis. Format: cell-based, Erythrocyte. The note with it: read-out: ED50 (the source's name).
Data set [3] is described as follows: Inhibition of cell division of sea urchin fertilized eggs at 100 uM. The settings on record: Strongylocentrotus intermedius, Egg. In kind it is functional.

What is called inhibition is the change of the read-out against control, counted positive when it falls.

With `CO[C@H]1[C@H](OC[C@@H]2O[C@@H](O[C@@H](CC[C@@H](C)[C@H]3C[C@@H](O)[C@@H]4[C@]3(C)CC[C@H]3[C@@]4(O)C[C@H](O)C4C[C@@H](O)CC[C@@]43C)C(C)C)[C@H](O)[C@H]2O)OC[C@@H](O)[C@@H]1O` (some centres undefined) [MEDIASTEROSIDE M1], the inhibition at 25 µM in data set [1] was 100%. The HC50 in data set [2] was 66 µM.
In turn, `CC(C)[C@H](CC[C@@H](C)[C@H]1C[C@@H](O)[C@@H]2[C@]1(C)CC[C@H]1[C@@]2(O)C[C@H](O)C2C[C@@H](O)CC[C@@]21C)O[C@@H]1O[C@@H](CO[C@@H]2OC[C@@H](O)[C@H](O)[C@H]2O)[C@H](O)[C@H]1O` (some centres undefined) [MEDIASTEROSIDE M2] registered an inhibition at 100 µM in data set [3] of 100%. Besides, the HC50 in data set [2] turned out to be 35 µM.

The values are drawn from ChEMBL document CHEMBL1158015, “New steroid glycosides from the deep-water starfish Mediaster murrayi” (J Nat Prod, 1999).
